From ChEMBL document CHEMBL1201862, “PubChem BioAssay data set” (2004)
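Protocol summary: plate cells (96-well), add compound at 5 concentrations, incubate 48 h, interpolate endpoints linearly. Abbreviation: GI50, concentration required for 50% inhibition of growth.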 The source made the active and inactive calls. Cut-off read from the data, not from the text of the source: active = GI50 up to about 1.1 µM and inactive = higher.

How the values were obtained:
Assay in all cases: NCI tumour cell line growth inhibition, 48 h
[1] = system: OVCAR-5
[2] = system: SK-MEL-2
[3] = system: TK-10
[4] = system: SNB-75
[5] = system: SK-MEL-5
[6] = system: SN12C
[7] = system: NCI-H522
[8] = system: HCC 2998
[9] = system: Malme-3M
[10] = system: CAKI-1
[11] = system: COLO 205
[12] = system: HT-29
[13] = system: HL-60
[14] = system: HCT-116
[15] = system: A549
[16] = system: KM12
[17] = system: M14
[18] = system: UACC-257
[19] = system: MOLT-4
[20] = system: MDA-MB-231

Measured: GI50

CC1C(c2ccccc2)N(C)C(c2ccccc2)C(C)C1(O)c1ccccc1 (stereo not drawn)
inactive: [1] > 100 µM | [2] 79.6 µM | [3] > 100 µM | [4] 73.3 µM | [5] > 100 µM | [6] > 100 µM | [7] > 100 µM | [8] > 100 µM | [9] > 100 µM | [10] > 100 µM | [11] 20 µM | [12] 55.8 µM | [13] 31.8 µM | [14] 26.4 µM | [15] 99.5 µM | [16] 77.8 µM | [17] > 100 µM | [18] > 100 µM | [19] > 100 µM

NCCCOc1ccc([N+](=O)[O-])cc1Cl
inactive: [1] > 100 µM | [2] > 100 µM | [3] > 100 µM | [4] 61.1 µM | [5] > 100 µM | [7] 5.62 µM | [8] > 100 µM | [9] > 100 µM | [10] 28.1 µM | [11] > 100 µM | [12] > 100 µM | [13] > 100 µM | [14] > 100 µM | [15] > 100 µM | [16] > 100 µM | [17] > 100 µM | [18] > 100 µM | [19] > 100 µM

COc1cccc(CSCC(=O)O)c1
inactive: [1] > 100 µM | [2] > 100 µM | [3] > 100 µM | [4] > 100 µM | [5] > 100 µM | [6] > 100 µM | [7] > 100 µM | [9] > 100 µM | [10] > 100 µM | [11] > 100 µM | [12] > 100 µM | [20] > 100 µM | [14] > 100 µM | [15] > 100 µM | [16] > 100 µM | [17] > 100 µM | [18] > 100 µM

O=C(N/C(=C\c1cc(Cl)ccc1Cl)c1nc2cc(Cl)ccc2[nH]1)c1ccccc1
inactive: [1] 21.2 µM | [2] 13.7 µM | [3] 3.78 µM | [4] 19.1 µM | [5] 13.2 µM | [6] 19.5 µM | [7] 12.4 µM | [8] 18.2 µM | [9] 18.9 µM | [10] 22 µM | [11] 18.8 µM | [12] 16.4 µM | [13] 14.3 µM | [14] 10.5 µM | [15] 16.8 µM | [16] 15.4 µM | [17] 17.1 µM | [18] 15 µM | [19] 8.04 µM
